Laboratory results published in ChEMBL document CHEMBL1136974, “Selective inhibitors of tumor progression loci-2 (Tpl2) kinase with potent inhibition of TNF-alpha production in human whole blood” (Bioorg Med Chem Lett, 2009).

Key:
[1] = Membrane permeability by PAMPA assay; format: ADME; conditions: read-out: permeability
[2] = Selectivity of Tpl2 to p38
[3] = Selectivity of Tpl2 to PKA
[4] = Selectivity of Tpl2 to Src
[5] = Selectivity of Tpl2 to PKC
[6] = Selectivity of Tpl2 to CAMK2
[7] = Selectivity of Tpl2 to MK2
[8] = Selectivity of Tpl2 to EGFR
[9] = Cmax in rat at 100 mg/kg, po; format: ADME, organism-based; design: dose 100 mg/kg, route oral; conditions: in vivo
[10] = AUC in rat at 100 mg/kg, po; format: ADME, organism-based; design: dose 100 mg/kg, route oral; conditions: plasma
[11] = Clearance in rat; format: ADME, organism-based; conditions: in vivo

N#Cc1cnc2c(Br)cc(NCc3cn(Cc4cccnc4)nn3)cc2c1Nc1ccc(F)c(Cl)c1
Papp [1]: 0.13 ×10⁻⁶ cm/s
fold change (FC) [2]: 10
fold change (FC) [3]: 10
fold change (FC) [4]: 10
fold change (FC) [5]: 10
fold change (FC) [6]: 10
fold change (FC) [7]: 10

CN(C)CCn1cc(CNc2cc(Cl)c3ncc(C#N)c(Nc4ccc(F)c(Cl)c4)c3c2)nn1
fold change (FC) [2]: 10
fold change (FC) [3]: 10
fold change (FC) [4]: 10
fold change (FC) [5]: 10
fold change (FC) [6]: 10
fold change (FC) [7]: 10

N#Cc1cnc2c(Cl)cc(NCc3cn(Cc4cccnc4)nn3)cc2c1Nc1ccc(F)c(Cl)c1
Papp [1]: 0.18 ×10⁻⁶ cm/s
fold change (FC) [2]: 10
fold change (FC) [3]: 10
fold change (FC) [4]: 10
fold change (FC) [5]: 10
fold change (FC) [6]: 10
fold change (FC) [7]: 10

N#Cc1cnc2c(Cl)cc(NCc3c[nH]nn3)cc2c1Nc1ccc(F)c(Cl)c1
fold change (FC) [8]: 10
fold change (FC) [2]: 10
fold change (FC) [3]: 10
fold change (FC) [4]: 10
fold change (FC) [5]: 10
fold change (FC) [6]: 10
fold change (FC) [7]: 10

N#Cc1cnc2c(Cl)cc(NCc3cn(CCN)nn3)cc2c1Nc1ccc(F)c(Cl)c1
fold change (FC) [2]: 10
fold change (FC) [3]: 10
fold change (FC) [4]: 10
fold change (FC) [5]: 10
fold change (FC) [6]: 10
fold change (FC) [7]: 10

CCN1CCC(n2cc(CNc3cc(Cl)c4ncc(C#N)c(Nc5ccc(F)c(Cl)c5)c4c3)nn2)CC1
fold change (FC) [8]: 6880
Papp [1]: 0.36 ×10⁻⁶ cm/s
Cmax [9]: 517 ng/mL
fold change (FC) [2]: 10
fold change (FC) [3]: 10
fold change (FC) [4]: 10
fold change (FC) [5]: 10
fold change (FC) [6]: 10
fold change (FC) [7]: 10
AUC [10]: 4840 ng·h/mL

N#Cc1cnc2c(Cl)cc(NCc3cn(CCC4CCCN4)nn3)cc2c1Nc1ccc(F)c(Cl)c1 (stereo not drawn)
Papp [1]: 0.57 ×10⁻⁶ cm/s
fold change (FC) [2]: 10
fold change (FC) [3]: 10
fold change (FC) [4]: 10
fold change (FC) [5]: 10
fold change (FC) [6]: 10
fold change (FC) [7]: 10

N#Cc1cnc2c(Cl)cc(NCc3cn(Cc4ccccc4)nn3)cc2c1Nc1ccc(F)c(Cl)c1
fold change (FC) [2]: 10
fold change (FC) [3]: 10
fold change (FC) [4]: 10
fold change (FC) [5]: 10
fold change (FC) [6]: 10
fold change (FC) [7]: 10

CCCN1CCC(n2cc(CNc3cc(Cl)c4ncc(C#N)c(Nc5ccc(F)c(Cl)c5)c4c3)nn2)CC1
Papp [1]: 0.48 ×10⁻⁶ cm/s
fold change (FC) [2]: 10
fold change (FC) [3]: 10
fold change (FC) [4]: 10
fold change (FC) [5]: 10
fold change (FC) [6]: 10
fold change (FC) [7]: 10

N#Cc1cnc2c(Cl)cc(NCc3cn(CCN4CCCCC4)nn3)cc2c1Nc1ccc(F)c(Cl)c1
fold change (FC) [2]: 10
fold change (FC) [3]: 10
fold change (FC) [4]: 10
fold change (FC) [5]: 10
fold change (FC) [6]: 10
fold change (FC) [7]: 10

N#Cc1cnc2c(Br)cc(NCc3cn(CC(=O)O)nn3)cc2c1Nc1ccc(F)c(Cl)c1
Papp [1]: 1.8 ×10⁻⁶ cm/s
fold change (FC) [2]: 10
fold change (FC) [3]: 10
fold change (FC) [4]: 10
fold change (FC) [5]: 10
fold change (FC) [6]: 10
fold change (FC) [7]: 10

CC(C)N1CCC(n2cc(CNc3cc(Cl)c4ncc(C#N)c(Nc5ccc(F)c(Cl)c5)c4c3)nn2)CC1
fold change (FC) [2]: 10
fold change (FC) [3]: 10
fold change (FC) [4]: 10
fold change (FC) [5]: 10
fold change (FC) [6]: 10
fold change (FC) [7]: 10

N#Cc1cnc2c(Cl)cc(NCc3cn(-c4cccnc4)nn3)cc2c1Nc1ccc(F)c(Cl)c1
fold change (FC) [2]: 10
fold change (FC) [3]: 10
fold change (FC) [4]: 10
fold change (FC) [5]: 10
fold change (FC) [6]: 10
fold change (FC) [7]: 10

N#Cc1cnc2c(Cl)cc(NCc3cn(C4CCNCC4)nn3)cc2c1Nc1ccc(F)c(Cl)c1
Papp [1]: 0.03 ×10⁻⁶ cm/s
fold change (FC) [2]: 10
fold change (FC) [3]: 10
fold change (FC) [4]: 10
fold change (FC) [5]: 10
fold change (FC) [6]: 10
fold change (FC) [7]: 10

N#Cc1cnc2c(Cl)cc(NCc3cn(CCN4CCCCCC4)nn3)cc2c1Nc1ccc(F)c(Cl)c1
fold change (FC) [2]: 10
fold change (FC) [3]: 10
fold change (FC) [4]: 10
fold change (FC) [5]: 10
fold change (FC) [6]: 10
fold change (FC) [7]: 10

N#Cc1cnc2c(Cl)cc(NCc3cn(Cc4ccccn4)nn3)cc2c1Nc1ccc(F)c(Cl)c1
fold change (FC) [2]: 10
fold change (FC) [3]: 10
fold change (FC) [4]: 10
fold change (FC) [5]: 10
fold change (FC) [6]: 10
fold change (FC) [7]: 10

N#Cc1cnc2c(Br)cc(NCc3cn(-c4ccccc4)nn3)cc2c1Nc1ccc(F)c(Cl)c1
Papp [1]: 1.2 ×10⁻⁶ cm/s
fold change (FC) [2]: 10
fold change (FC) [3]: 10
fold change (FC) [4]: 10
fold change (FC) [5]: 10
fold change (FC) [6]: 10
fold change (FC) [7]: 10

CN1CCC(n2cc(CNc3cc(Cl)c4ncc(C#N)c(Nc5ccc(F)c(Cl)c5)c4c3)nn2)CC1
Papp [1]: 0.39 ×10⁻⁶ cm/s
fold change (FC) [2]: 10
fold change (FC) [3]: 10
fold change (FC) [4]: 10
fold change (FC) [5]: 10
fold change (FC) [6]: 10
fold change (FC) [7]: 10

N#Cc1cnc2c(Cl)cc(NCc3cn(C4CCN(C5CCC5)CC4)nn3)cc2c1Nc1ccc(F)c(Cl)c1
Papp [1]: 0.43 ×10⁻⁶ cm/s
fold change (FC) [2]: 10
fold change (FC) [3]: 10
fold change (FC) [4]: 10
fold change (FC) [5]: 10
fold change (FC) [6]: 10
fold change (FC) [7]: 10

N#Cc1cnc2c(Cl)cc(NCc3cn(-c4ccccc4)nn3)cc2c1Nc1ccc(F)c(Cl)c1
fold change (FC) [2]: 10
fold change (FC) [3]: 10
fold change (FC) [4]: 10
fold change (FC) [5]: 10
fold change (FC) [6]: 10
fold change (FC) [7]: 10

N#Cc1cnc2c(Cl)cc(NCc3cn(CCN4CCOCC4)nn3)cc2c1Nc1ccc(F)c(Cl)c1
fold change (FC) [2]: 10
fold change (FC) [3]: 10
fold change (FC) [4]: 10
fold change (FC) [5]: 10
fold change (FC) [6]: 10
fold change (FC) [7]: 10

N#Cc1cnc2c(Cl)cc(NCc3cn(CCCN)nn3)cc2c1Nc1ccc(F)c(Cl)c1
fold change (FC) [2]: 10
fold change (FC) [3]: 10
fold change (FC) [4]: 10
fold change (FC) [5]: 10
fold change (FC) [6]: 10
fold change (FC) [7]: 10

CN1CCCC1CCn1cc(CNc2cc(Cl)c3ncc(C#N)c(Nc4ccc(F)c(Cl)c4)c3c2)nn1 (stereo not drawn)
fold change (FC) [2]: 10
fold change (FC) [3]: 10
fold change (FC) [4]: 10
fold change (FC) [5]: 10
fold change (FC) [6]: 10
fold change (FC) [7]: 10

N#Cc1cnc2c(Br)cc(NCc3cn(CCC4CCCN4)nn3)cc2c1Nc1ccc(F)c(Cl)c1 (stereo not drawn)
Papp [1]: 0.72 ×10⁻⁶ cm/s
fold change (FC) [2]: 10
fold change (FC) [3]: 10
fold change (FC) [4]: 10
fold change (FC) [5]: 10
fold change (FC) [6]: 10
fold change (FC) [7]: 10

N#Cc1cnc2c(Cl)cc(NCc3cn(Cc4ccncc4)nn3)cc2c1Nc1ccc(F)c(Cl)c1
fold change (FC) [2]: 10
fold change (FC) [3]: 10
clearance [11]: 88 mL/min/kg
fold change (FC) [4]: 10
fold change (FC) [5]: 10
fold change (FC) [6]: 10
fold change (FC) [7]: 10

N#Cc1cnc2c(Cl)cc(NCc3cn(-c4ccncc4)nn3)cc2c1Nc1ccc(F)c(Cl)c1
fold change (FC) [2]: 10
fold change (FC) [3]: 10
clearance [11]: 28 mL/min/kg
fold change (FC) [4]: 10
fold change (FC) [5]: 10
fold change (FC) [6]: 10
fold change (FC) [7]: 10

CC(C)(C)n1cc(CNc2cc(Cl)c3ncc(C#N)c(Nc4ccc(F)c(Cl)c4)c3c2)nn1
Papp [1]: 0.1 ×10⁻⁶ cm/s
fold change (FC) [2]: 10
fold change (FC) [3]: 10
fold change (FC) [4]: 10
fold change (FC) [5]: 10
fold change (FC) [7]: 10

N#Cc1cnc2c(Br)cc(NCc3c[nH]nn3)cc2c1Nc1ccc(F)c(Cl)c1
fold change (FC) [2]: 10
fold change (FC) [3]: 10
fold change (FC) [4]: 10
fold change (FC) [5]: 10
fold change (FC) [7]: 10

CCN1CCC(CCn2cc(CNc3cc(Cl)c4ncc(C#N)c(Nc5ccc(F)c(Cl)c5)c4c3)nn2)CC1
fold change (FC) [2]: 10
fold change (FC) [3]: 10
fold change (FC) [4]: 10
fold change (FC) [5]: 10
fold change (FC) [6]: 10
fold change (FC) [7]: 10

N#Cc1cnc2c(Cl)cc(NCc3cn(CC(=O)O)nn3)cc2c1Nc1ccc(F)c(Cl)c1
Papp [1]: 0.04 ×10⁻⁶ cm/s
fold change (FC) [2]: 10
fold change (FC) [3]: 10
fold change (FC) [4]: 10
fold change (FC) [5]: 10
fold change (FC) [6]: 10
fold change (FC) [7]: 10

CC(C)(C)n1cc(CNc2cc(Br)c3ncc(C#N)c(Nc4ccc(F)c(Cl)c4)c3c2)nn1
fold change (FC) [2]: 10
fold change (FC) [3]: 10
fold change (FC) [4]: 10
fold change (FC) [5]: 10
fold change (FC) [6]: 10
fold change (FC) [7]: 10
